Measurements as given in the NIST ThermoML archive (doi:10.1021/acs.jced.8b01174).
Numbers after ± are expanded uncertainties.

Tests used:
[1] = wn = mass fraction of the nth substance listed; conditions: 97.7 kPa, Liquid, w2 = 0.874; for viscosity: Concentric cylinders viscometry; for mass density: Vibrating tube method
[2] = molar heat capacity at constant pressure; conditions: 100 kPa, Liquid, DSC
[3] = 97.7 kPa, Liquid; for viscosity: Concentric cylinders viscometry; for mass density: Vibrating tube method

C1CNCCN1 [piperazine] + CN(CCO)CCO
viscosity ([1]; 293.15 K): 150.46 ± 4.3 mPa·s | mass density ([1]; 293.15 K): 1036 ± 3 kg/m3 | viscosity ([1]; 303.15 K): 79.46 ± 2.3 mPa·s | mass density ([1]; 303.15 K): 1029 ± 3 kg/m3 | viscosity ([1]; 313.15 K): 45.07 ± 1.3 mPa·s | mass density ([1]; 313.15 K): 1021 ± 3 kg/m3 | viscosity ([1]; 323.15 K): 27.24 ± 0.81 mPa·s | mass density ([1]; 323.15 K): 1014 ± 3 kg/m3 | viscosity ([1]; 333.15 K): 17.41 ± 0.54 mPa·s | mass density ([1]; 333.15 K): 1006 ± 3 kg/m3 | viscosity ([1]; 343.15 K): 11.68 ± 0.4 mPa·s | mass density ([1]; 343.15 K): 999 ± 3 kg/m3 | viscosity ([1]; 353.15 K): 8.18 ± 0.27 mPa·s | mass density ([1]; 353.15 K): 991 ± 3 kg/m3 | viscosity ([1]; 363.15 K): 5.93 ± 0.2 mPa·s | mass density ([1]; 363.15 K): 983 ± 3 kg/m3

O [water]
molar heat capacity at constant pressure ([2]; 298.15 K): 74.8 ± 3.5 J/K/mol | molar heat capacity at constant pressure ([2]; 308.15 K): 74.78 ± 3.5 J/K/mol | molar heat capacity at constant pressure ([2]; 318.15 K): 74.93 ± 3.5 J/K/mol | molar heat capacity at constant pressure ([2]; 328.15 K): 75.02 ± 3.5 J/K/mol | molar heat capacity at constant pressure ([2]; 338.15 K): 75.07 ± 3.5 J/K/mol | molar heat capacity at constant pressure ([2]; 348.15 K): 75.21 ± 3.6 J/K/mol | viscosity ([3]; 293.15 K): 1 ± 0.02 mPa·s | mass density ([3]; 293.15 K): 998 ± 2 kg/m3 | viscosity ([3]; 303.15 K): 0.8 ± 0.02 mPa·s | mass density ([3]; 303.15 K): 996 ± 2 kg/m3 | viscosity ([3]; 313.15 K): 0.65 ± 0.02 mPa·s | mass density ([3]; 313.15 K): 992 ± 2 kg/m3 | viscosity ([3]; 323.15 K): 0.55 ± 0.02 mPa·s | mass density ([3]; 323.15 K): 988 ± 2 kg/m3 | viscosity ([3]; 333.15 K): 0.47 ± 0.02 mPa·s | mass density ([3]; 333.15 K): 983 ± 2 kg/m3 | viscosity ([3]; 343.15 K): 0.4 ± 0.02 mPa·s | mass density ([3]; 343.15 K): 978 ± 2 kg/m3 | viscosity ([3]; 353.15 K): 0.35 ± 0.02 mPa·s | mass density ([3]; 353.15 K): 972 ± 2 kg/m3 | viscosity ([3]; 363.15 K): 0.31 ± 0.02 mPa·s | mass density ([3]; 363.15 K): 965 ± 2 kg/m3
